The values that follow come from ChEMBL document CHEMBL1201862, “PubChem BioAssay data set” (2004).

Each structure is given as a SMILES string. Calls of active or inactive are those of the source.

Experiment [1] deals with T1, Neuropeptides B/W receptor type 1 (Homo sapiens, UniProt P48145).
T1 sequence (P48145 whole entry): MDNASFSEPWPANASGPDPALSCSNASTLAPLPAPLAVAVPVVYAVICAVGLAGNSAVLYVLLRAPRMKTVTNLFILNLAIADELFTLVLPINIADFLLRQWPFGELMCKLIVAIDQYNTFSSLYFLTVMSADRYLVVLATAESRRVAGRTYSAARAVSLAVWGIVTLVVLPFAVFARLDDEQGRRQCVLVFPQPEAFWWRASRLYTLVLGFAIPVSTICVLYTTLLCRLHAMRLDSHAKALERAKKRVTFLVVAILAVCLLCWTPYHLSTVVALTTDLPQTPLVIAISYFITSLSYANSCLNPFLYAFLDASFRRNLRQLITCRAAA
The experiment in a line: GPR7 antagonist potency, late-stage follow-up, cell-based, fluorescence, dose response (AID 463251). It is filed as functional.

Experiment [2] concerns the target T1, Neuropeptides B/W receptor type 1. In words: Fluorescence-based dose response cell-based high throughput screening assay to identify antagonists of the G-protein coupled receptor 7 (GPR7). [Related pubchem assays: 1952 (Screening assay (GPR7 antagonists).), 1880 (Summary AID.)]. It is filed as functional.
Experiment [3] addresses Melanin-concentrating hormone receptor 1 (Homo sapiens, UniProt Q99705). The experiment in a line: Fluorescence-based counterscreen for antagonists of the G-protein coupled receptor 7 (GPR7): cell-based high throughput dose response assay to identify antagonists of the melanin-concentrating hormone receptor 1 (MCHR1). It is filed as functional. (In general: The purpose of a counterscreen is to sort out artefacts and off-target activity.)

Experiment [4] relates to HEK293. The experiment in a line: PMA/Ionomycin induced NF-kB luciferase assay in 293- NF-kB-Luc stable cells. [Related pubchem assays: 1299, 1270, 1295, 1375, 1287, 1281, 1293, 1291, 1289, 1280, 465, 1364, 1282, 1372, 1365, 1370, 1367, 1366, 1269, 1373, 1292, 1290, 1302, 1371, 1283, 1271, 1294, 1374, 1368, 1369 ]. It is filed as functional, cell-based. Particulars: Homo sapiens.

Experiment [5] has as its target Luciferin 4-monooxygenase (Photinus pyralis, UniProt P08659). The experiment in a line: In vitro luciferase assay using purified luciferase. [Related pubchem assays: 1299, 1270, 1295, 1375, 1287, 1281, 1293, 1291, 1289, 1280, 465, 1364, 1282, 1372, 1365, 1370, 1367, 1366, 1266, 1373, 1292, 1290, 1302, 1371, 1283, 1271, 1294, 1374, 1368, 1369 ].
Experiment [6] relates to HEK293. The experiment in a line: Cytotoxicity assay in HEK293 cells. [Related pubchem assays (depositor defined):AID1266, AID1269, AID1270, AID1271, AID1280, AID1281, AID1282, AID1283, AID1287, AID1289, AID1290, AID1291, AID1292, AID1293, AID1294, AID1295, AID1299, AID1302, AID1364, AID1365, AID1366, AID1367, AID1369, AID1370, AID1371, AID1372, AID1373, AID1374, AID1375, AID1384 …. It is filed as functional, cell-based. Particulars: Homo sapiens.

The test system of experiment [7] is HEK293. In words: TNF Induced NF-kB Luciferase in 293-NF-kB-Luc Stable Cells. [Related pubchem assays: 1266, 1299, 1269, 1373, 1292, 1290, 1302, 1371, 1283, 1270, 1295, 1271, 1375, 1294, 1374, 1281, 1293, 1291, 1289, 1280, 465, 1368, 1364, 1282, 1372, 1365, 1369, 1370, 1367, 1366 ]. It is filed as functional, cell-based. The following applies: Homo sapiens.
For experiment [8], the target named is T2, Voltage-gated N-type calcium channel alpha-1B subunit/Amyloid beta A4 precursor protein-binding family A member 1 (Homo sapiens, UniProt Q00975+Q02410). The experiment in a line: disruptors of Mint-PDZ/N-type channel peptide interaction – biochemical, HTRF, set 2, SAR follow-up (AID 434980). It is filed as functional.
Experiment [9] deals with T2, Voltage-gated N-type calcium channel alpha-1B subunit/Amyloid beta A4 precursor protein-binding family A member 1. The experiment in a line: disruptors of Mint-PDZ/N-type channel peptide interaction – biochemical, HTRF, SAR follow-up (AID 2489). It is filed as functional. Background: In TR-FRET formats the signal depends on donor and acceptor labels being close together.

For experiment [10], the target named is Peroxisome proliferator-activated receptor gamma/Nuclear receptor coactivator 2 (Homo sapiens, UniProt P37231). It is filed as functional.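 Also: agonist potency for raising coactivator recruitment to the receptor.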
For experiment [11], the target named is Peroxisome proliferator-activated receptor gamma/Nuclear receptor coactivator 1 (Homo sapiens, UniProt P37231). It is filed as functional.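 Also: agonist potency as compounds enhance coactivator SRC-1 recruitment to PPARgamma.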
For experiment [12], the target named is Peroxisome proliferator-activated receptor gamma/Nuclear receptor coactivator 3 (Homo sapiens, UniProt P37231). It is filed as functional.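 Also: agonist potency for raising coactivator recruitment to the receptor.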
A further experiment has as its target Cytochrome P450 2C19 (Homo sapiens, UniProt P33261). The experiment in a line: qHTS Assay for Inhibitors and Substrates of Cytochrome P450 2C19. [Related pubchem assays: 410 ]. It is filed as ADME. Particulars: read-out: Potency.
A further experiment addresses Cytochrome P450 2D6 (Homo sapiens, UniProt P10635). The experiment in a line: qHTS Assay for Inhibitors and Substrates of Cytochrome P450 2D6. [Related pubchem assays: 410 ]. The following applies: read-out: Potency. It is filed as ADME. On the technique in general: In qHTS, concentration-response curves come from the screen itself.
A further experiment has as its target Beta-galactosidase (Escherichia coli, UniProt Q8VNN2). In words: beta-galactosidase enzyme inhibitors and activators, dose response, artefact control for CCR6 antagonist project, biochemical, E. coli enzyme, set 3 (AID 504712). It is filed as functional.
Another experiment addresses Hexokinase HKDC1 (Homo sapiens, UniProt Q2TB90). In words: HKDC1 hexokinase inhibitors, dose response, biochemical, W721R variant (AID 504729). It is filed as functional.
In the next experiment the target is Genome polyprotein (dengue virus type 2, UniProt P29990). In words: Dengue-2 NS5 methyltransferase inhibitors, primary screen, biochemical, confirmation dose response (AID 588689). It is filed as functional.
The nature of experiment [13]: Fluorescence-based cell-based high throughput dose response assay for inhibitors of the interaction of nucleotide-binding oligomerization domain containing 2 (NOD2) and the receptor-interacting serine-threonine kinase 2 (RIPK2). It is filed as functional. Particulars: Homo sapiens.
The next experiment addresses Beta Lactamase (Pseudomonas aeruginosa, UniProt Q932Y6). The experiment in a line: beta-lactamase reporter inhibitor potency, dose response, artefact control for NOD2-RIPK2 interaction inhibitor project, BLA reporter cells, FRET fluorescence (AID 651552). It is filed as functional, cell-based.
Experiment [14] in a line: THP-1 cell cytotoxicity, dose response, cytotoxicity control for Vif-APOBEC3G degradation inhibitor project, THP-1 cells (AID 1117359). Particulars: Human immunodeficiency virus 1, THP-1. It is filed as functional.

T2 sequence (Q00975 whole entry): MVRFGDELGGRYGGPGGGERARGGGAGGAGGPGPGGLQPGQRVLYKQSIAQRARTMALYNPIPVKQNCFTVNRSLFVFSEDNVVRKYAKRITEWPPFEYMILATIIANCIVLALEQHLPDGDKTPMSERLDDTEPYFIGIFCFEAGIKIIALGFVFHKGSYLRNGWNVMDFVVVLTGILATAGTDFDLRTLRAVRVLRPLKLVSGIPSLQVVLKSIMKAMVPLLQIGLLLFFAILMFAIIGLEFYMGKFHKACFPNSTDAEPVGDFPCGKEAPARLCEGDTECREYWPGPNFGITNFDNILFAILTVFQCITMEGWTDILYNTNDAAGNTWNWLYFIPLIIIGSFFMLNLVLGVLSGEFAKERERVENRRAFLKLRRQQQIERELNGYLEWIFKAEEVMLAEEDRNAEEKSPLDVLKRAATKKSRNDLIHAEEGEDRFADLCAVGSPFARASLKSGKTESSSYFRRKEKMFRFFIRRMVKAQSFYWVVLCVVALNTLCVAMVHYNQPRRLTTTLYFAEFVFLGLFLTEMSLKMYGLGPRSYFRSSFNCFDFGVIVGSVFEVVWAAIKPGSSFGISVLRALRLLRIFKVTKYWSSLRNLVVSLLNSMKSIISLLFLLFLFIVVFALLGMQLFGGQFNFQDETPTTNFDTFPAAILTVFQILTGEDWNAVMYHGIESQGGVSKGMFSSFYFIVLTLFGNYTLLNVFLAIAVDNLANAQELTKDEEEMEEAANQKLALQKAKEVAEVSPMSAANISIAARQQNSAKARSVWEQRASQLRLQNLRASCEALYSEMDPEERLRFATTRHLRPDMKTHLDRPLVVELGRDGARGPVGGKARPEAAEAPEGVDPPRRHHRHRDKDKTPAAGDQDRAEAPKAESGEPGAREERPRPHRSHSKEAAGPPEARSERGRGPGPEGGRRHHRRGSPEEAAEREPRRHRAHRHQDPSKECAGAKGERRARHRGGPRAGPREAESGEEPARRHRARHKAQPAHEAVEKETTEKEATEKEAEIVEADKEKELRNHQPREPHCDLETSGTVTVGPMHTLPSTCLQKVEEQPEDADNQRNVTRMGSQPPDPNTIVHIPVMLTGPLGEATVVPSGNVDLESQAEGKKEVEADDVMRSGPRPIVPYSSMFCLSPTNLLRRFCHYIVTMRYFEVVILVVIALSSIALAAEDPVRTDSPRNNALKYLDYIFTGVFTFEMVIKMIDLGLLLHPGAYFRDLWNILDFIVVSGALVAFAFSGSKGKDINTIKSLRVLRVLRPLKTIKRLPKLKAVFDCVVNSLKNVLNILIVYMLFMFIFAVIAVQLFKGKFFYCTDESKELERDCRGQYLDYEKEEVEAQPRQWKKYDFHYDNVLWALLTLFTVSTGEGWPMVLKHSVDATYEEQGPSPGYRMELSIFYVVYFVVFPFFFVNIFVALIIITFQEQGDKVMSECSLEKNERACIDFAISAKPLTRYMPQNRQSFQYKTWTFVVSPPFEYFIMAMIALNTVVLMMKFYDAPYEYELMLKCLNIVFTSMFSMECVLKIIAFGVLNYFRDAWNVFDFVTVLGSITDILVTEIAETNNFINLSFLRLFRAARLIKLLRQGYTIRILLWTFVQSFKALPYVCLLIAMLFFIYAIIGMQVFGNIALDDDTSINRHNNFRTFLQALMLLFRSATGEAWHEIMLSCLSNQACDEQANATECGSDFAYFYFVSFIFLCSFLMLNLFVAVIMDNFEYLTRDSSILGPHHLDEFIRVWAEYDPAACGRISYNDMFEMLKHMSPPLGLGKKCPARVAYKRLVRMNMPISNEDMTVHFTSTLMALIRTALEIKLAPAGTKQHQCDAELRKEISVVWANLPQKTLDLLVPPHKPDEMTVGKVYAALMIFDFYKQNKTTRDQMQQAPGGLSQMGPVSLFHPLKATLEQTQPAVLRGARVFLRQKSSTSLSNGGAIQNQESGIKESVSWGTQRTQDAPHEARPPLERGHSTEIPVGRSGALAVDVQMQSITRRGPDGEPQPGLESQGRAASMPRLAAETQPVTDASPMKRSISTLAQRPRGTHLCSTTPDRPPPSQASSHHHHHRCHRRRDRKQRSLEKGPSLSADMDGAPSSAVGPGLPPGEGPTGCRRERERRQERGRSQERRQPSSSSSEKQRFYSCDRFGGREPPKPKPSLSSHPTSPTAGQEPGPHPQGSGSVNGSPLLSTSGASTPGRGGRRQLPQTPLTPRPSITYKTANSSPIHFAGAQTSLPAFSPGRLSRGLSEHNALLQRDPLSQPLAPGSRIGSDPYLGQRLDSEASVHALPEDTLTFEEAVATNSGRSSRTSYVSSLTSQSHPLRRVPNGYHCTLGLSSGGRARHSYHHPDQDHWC
T2 sequence (Q02410 whole entry): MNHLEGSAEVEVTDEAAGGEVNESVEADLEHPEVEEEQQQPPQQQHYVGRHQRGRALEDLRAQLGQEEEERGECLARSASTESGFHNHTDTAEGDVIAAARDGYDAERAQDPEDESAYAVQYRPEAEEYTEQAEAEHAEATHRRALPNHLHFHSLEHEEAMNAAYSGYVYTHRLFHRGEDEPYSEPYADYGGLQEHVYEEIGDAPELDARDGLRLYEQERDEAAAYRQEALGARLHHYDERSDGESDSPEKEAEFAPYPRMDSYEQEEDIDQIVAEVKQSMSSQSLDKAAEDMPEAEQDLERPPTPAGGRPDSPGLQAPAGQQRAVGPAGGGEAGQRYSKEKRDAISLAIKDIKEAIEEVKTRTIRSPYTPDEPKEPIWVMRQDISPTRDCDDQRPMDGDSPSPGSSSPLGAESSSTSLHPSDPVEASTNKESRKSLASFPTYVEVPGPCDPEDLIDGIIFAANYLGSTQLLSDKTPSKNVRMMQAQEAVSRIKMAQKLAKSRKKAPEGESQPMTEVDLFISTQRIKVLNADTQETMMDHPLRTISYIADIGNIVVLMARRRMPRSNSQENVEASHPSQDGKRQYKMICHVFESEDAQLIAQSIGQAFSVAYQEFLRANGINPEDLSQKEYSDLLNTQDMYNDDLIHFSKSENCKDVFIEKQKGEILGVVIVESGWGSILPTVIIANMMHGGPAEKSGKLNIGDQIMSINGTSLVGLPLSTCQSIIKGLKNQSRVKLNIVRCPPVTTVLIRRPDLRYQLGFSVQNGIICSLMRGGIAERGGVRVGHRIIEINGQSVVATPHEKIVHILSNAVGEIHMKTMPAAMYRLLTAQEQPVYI
Beta-galactosidase, sequence (Q8VNN2 whole entry): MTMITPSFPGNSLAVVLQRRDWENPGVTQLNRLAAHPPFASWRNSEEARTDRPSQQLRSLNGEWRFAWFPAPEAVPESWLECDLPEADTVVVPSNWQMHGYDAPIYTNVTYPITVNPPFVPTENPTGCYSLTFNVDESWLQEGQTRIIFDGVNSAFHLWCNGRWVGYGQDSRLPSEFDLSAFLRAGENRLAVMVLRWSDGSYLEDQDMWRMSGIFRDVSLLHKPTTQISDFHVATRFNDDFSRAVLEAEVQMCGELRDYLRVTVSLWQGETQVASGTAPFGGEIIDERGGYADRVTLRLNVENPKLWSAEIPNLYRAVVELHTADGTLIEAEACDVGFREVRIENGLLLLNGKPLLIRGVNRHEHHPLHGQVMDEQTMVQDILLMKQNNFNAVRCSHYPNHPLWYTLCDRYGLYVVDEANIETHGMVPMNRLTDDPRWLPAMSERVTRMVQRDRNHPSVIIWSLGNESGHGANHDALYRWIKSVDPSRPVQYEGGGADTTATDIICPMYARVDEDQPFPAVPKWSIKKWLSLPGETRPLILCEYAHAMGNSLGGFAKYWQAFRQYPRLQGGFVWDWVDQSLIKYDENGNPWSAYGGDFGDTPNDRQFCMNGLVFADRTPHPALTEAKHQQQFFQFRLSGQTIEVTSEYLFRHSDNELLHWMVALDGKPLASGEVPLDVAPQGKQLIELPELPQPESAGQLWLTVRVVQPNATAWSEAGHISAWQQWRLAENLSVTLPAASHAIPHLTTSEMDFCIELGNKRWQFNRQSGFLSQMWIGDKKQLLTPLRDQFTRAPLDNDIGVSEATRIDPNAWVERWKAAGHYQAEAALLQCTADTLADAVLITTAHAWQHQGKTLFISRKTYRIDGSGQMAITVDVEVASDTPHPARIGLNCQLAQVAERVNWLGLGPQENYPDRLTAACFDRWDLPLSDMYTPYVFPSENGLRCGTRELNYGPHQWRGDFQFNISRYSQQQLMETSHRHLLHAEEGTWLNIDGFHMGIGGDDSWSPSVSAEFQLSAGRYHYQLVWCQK
Hexokinase HKDC1, sequence (Q2TB90 whole entry): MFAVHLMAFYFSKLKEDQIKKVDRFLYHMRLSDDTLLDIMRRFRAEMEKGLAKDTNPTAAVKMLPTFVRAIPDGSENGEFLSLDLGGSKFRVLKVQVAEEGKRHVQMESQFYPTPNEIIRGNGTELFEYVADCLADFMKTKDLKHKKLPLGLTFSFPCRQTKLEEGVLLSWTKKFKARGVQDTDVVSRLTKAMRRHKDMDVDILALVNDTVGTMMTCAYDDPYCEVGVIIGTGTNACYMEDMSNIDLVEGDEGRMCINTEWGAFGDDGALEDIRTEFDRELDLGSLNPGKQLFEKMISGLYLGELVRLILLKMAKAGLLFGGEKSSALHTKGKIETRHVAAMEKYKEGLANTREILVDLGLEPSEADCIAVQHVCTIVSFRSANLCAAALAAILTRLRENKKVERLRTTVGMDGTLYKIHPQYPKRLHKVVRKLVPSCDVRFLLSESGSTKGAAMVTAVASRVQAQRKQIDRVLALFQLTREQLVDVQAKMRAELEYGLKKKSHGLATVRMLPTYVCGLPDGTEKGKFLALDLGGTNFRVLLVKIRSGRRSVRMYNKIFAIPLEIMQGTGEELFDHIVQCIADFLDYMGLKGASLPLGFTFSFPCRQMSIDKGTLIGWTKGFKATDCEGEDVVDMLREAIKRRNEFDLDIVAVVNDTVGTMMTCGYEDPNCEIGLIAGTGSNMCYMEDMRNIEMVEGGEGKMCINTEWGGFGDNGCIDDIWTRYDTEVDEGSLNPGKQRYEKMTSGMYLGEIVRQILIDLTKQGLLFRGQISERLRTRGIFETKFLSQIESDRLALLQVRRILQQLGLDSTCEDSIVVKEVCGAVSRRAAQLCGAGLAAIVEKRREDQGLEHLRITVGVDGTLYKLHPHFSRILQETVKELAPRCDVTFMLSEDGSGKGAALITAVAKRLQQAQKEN

What is called IC50 is the concentration needed to halve the response being measured. Regarding `CCOc1ccc(CCOc2c(Cl)cnn(-c3ccccc3)c2=O)cc1OCC`, the IC50 in experiment [1] is > 20 µM (inactive).
Regarding `CN(C)C1=NC[C@H](Cc2ccccc2)N1CC1CCC(C(C)(C)C)CC1` (stereo not given in full), the results for the IC50 in experiment [2] and in [3] were 7.86 µM (active) and 10.6 µM (not active), respectively.
Usually EC50 stands for the midpoint of the concentration-response curve. Turning to `Cc1oc2cc3c(C(=O)OCCN(C)C)c(C)oc3cc2c1C(=O)OCCN(C)C`, the concentration for a half-maximal effect (EC50) in the experiment on HEK293 [4] is 0.781 µM (active); in [5], > 8 µM (not active); in the experiment on HEK293 [6] it was 13.9 µM (inactive); in the experiment with HEK293 [7] it was 0.11 µM (active).
Consider `COc1ccc(CNC(=O)COC(=O)c2cccc3ccccc23)cc1`, for which the IC50 was 26.4 µM (active) in [8] and > 56.8 µM (inactive) in experiment [9].
Take `CCOc1cccc(C(=O)Nc2nnc(-c3cccs3)s2)c1`: the EC50 in experiment [10] was 22.2 µM (not active); in experiment [11], 24.1 µM (not active); in [12] it was 30.3 µM (not active).
`C[C@@H](C(=O)O)c1ccc(N2Cc3ccccc3C2=O)cc1` [(R)-INDOPROFEN]: the values for the AC50 on Cytochrome P450 2C19 and at Cytochrome P450 2D6 were 10 µM (inconclusive) and 7.94 µM (inconclusive), respectively.
A word on the CC50: it is the concentration that lowers cell viability or growth by half. In the case of `Cc1[nH]c2ccccc2c1C1=CC(=O)C=CC1=O`, the IC50 was > 66.6 µM (inactive) at Beta-galactosidase; 3.4 µM (active) on Hexokinase HKDC1; 17.7 µM (active) at Genome polyprotein; 3.46 µM (active) in [13]; 19.9 µM (inactive) at Beta Lactamase. Further, in [14], the CC50 was > 40 µM (active).
